Our source for the Ki and hair growth stimulation values is patent US20010029261A1, “Small molecule sulfonamide hair growth compositions and uses” (GUILFORD PHARMACEUTICALS INC., priority 1997, published 2001).

In one assay the target is FKBP12 (Homo sapiens, UniProt P62942). As to the kind of experiment: Ki test procedure: inhibition of peptidyl-prolyl isomerase (rotamase) activity, chymotrypsin-coupled assay. In kind it is biochemical. Conditions: apparent Ki. The source says:
The inhibition of the prolyl peptidyl cis-trans isomerase activity of FKBP may be measured as an indicator of this affinity.
Inhibition of the peptidyl-prolyl isomerase (rotamase) activity of the compounds used in the inventive methods and pharmaceutical compositions can be evaluated by known methods described in the literature (Harding et al., Nature, 1989, 341:758-760; Holt et al. J. Am. Chem. Soc., 115:9923-9938). These values are obtained as apparent Ki's and are presented for representative compounds in TABLE II.
The cis-trans isomerization of an alanine-proline bond in a model substrate, N-succinyl-Ala-Ala-Pro-Phe-p-nitroanilide, is monitored spectrophotometrically in a chymotrypsin-coupled assay, which releases para-nitroanilide from the trans form of the substrate. The inhibition of this reaction caused by the addition of different concentrations of inhibitor is determnined, and the data is analyzed as a change in first-order rate constant as a function of inhibitor concentration to yield the apparent Ki values.
In a plastic cuvette are added […] of ice cold assay buffer (25 mM HEPES, pH 7.8, 100 mM NaCl), 10 mL of FKBP (2.5 mM in 10 mM Tris-Cl pH 7.5, 100 mM NaCl, 1 mM dithiothreitol), […] of chymotrypsin (50 mg/ml in 1 mM HCl) and […] of test compound at various concentrations in dimethyl sulfoxide. The reaction is initiated by the addition of 5 mL of substrate (succinyl-Ala-Phe-Pro-Phe-para-nitroanilide, 5 mg/mL in 2.35 mM LiCl in trifluoroethanol).
The absorbance at 390 nm versus time is monitored for 90 seconds using a spectrophotometer and the rate constants are determined from the absorbance versus time data files.

For a further assay, the system named is hair growth. Conditions: topical, but not oral, application; cited from earlier work.

Chain of FKBP12 (P62942 whole entry, species assumed): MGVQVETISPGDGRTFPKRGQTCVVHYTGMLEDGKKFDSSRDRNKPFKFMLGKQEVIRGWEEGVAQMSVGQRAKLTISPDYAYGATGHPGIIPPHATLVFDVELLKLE

Consider `O=C(OCCCCc1ccccc1)C1CCCCN1S(=O)(=O)Cc1ccccc1` (stereo not drawn) [Compound 7, 4-phenyl-1-butyl-N-(α-toluene-sulfonyl)pipecolate], for which the Ki on FKBP12 worked out at 127 nM.
On the same count and under the same terms, as for `O=C(OC(CCc1ccccc1)CCc1ccccc1)C1CCCCN1S(=O)(=O)Cc1ccccc1` (stereo not drawn) [Compound 2, 1,5-diphenyl-3-pentyl-N-(α-toluene-sulfonyl)pipecolate], the figure is 34 nM; as for `O=C(OCCCc1cccnc1)[C@@H]1CCCN1S(=O)(=O)Cc1ccccc1` [Compound 4, 3-(3-pyridyl)-1-propyl-(2S)-N-(α-toluenesulfonyl)pyrrolidine-2-carboxylate], 332 nM.
The same measure, in the same setting: as for `O=C(OCCCCc1ccccc1)C1CCCCN1S(=O)(=O)Cc1ccccc1` (racemic) [Compound 1, 4-phenyl-1-butyl-1-(benzylsulfonyl)-(2R,S)-2-pipecolinate], the figure is 72 nM.
On to `C=CC[C@@H]1/C=C(\C)C[C@H](C)C[C@H](OC)[C@H]2O[C@@](O)(C(=O)C(=O)N3CCCC[C@H]3C(=O)O[C@H](/C(C)=C/[C@@H]3CC[C@@H](O)[C@H](OC)C3)[C@H](C)[C@@H](O)CC1=O)[C@H](C)C[C@@H]2OC` [FK506], for which the hair growth stimulation entry in the assay with hair growth is on record as “stimulates hair growth in a dose-dependent manner”.
